Consider 2 compounds from patent publication US20060003992A1, “New drug combinations” (Pharmacia & Upjohn Company, LLC, priority 2001, published 2006).

The subject of the assay is mice. Put plainly: conditioned avoidance response assay. Type of assay: in vivo. Conditions: tested 20 min after. The protocol:
Eleven mice per sample group are tested using a conditioned avoidance response assay, which can be used to predict the likelihood of possible detrimental side effects associated with the administration of a neuroleptic agent. The regimen included a pre-treatment with either saline or reboxetine (at a dosage of 6 mg/kg, i.p.) followed thirty minutes afterwards by treatment with either saline or raclopride (0.05 mg/kg or 0.10 mg/kg, s.c.). The mice are tested in the assay twenty minutes after administration of the saline or raclopride. The mean average avoidance as measured by the assay for the six different sample groups are as follows: […]

Structures are written as SMILES.

On to `CCN1CCC[C@H]1CNC(=O)c1c(O)c(Cl)cc(Cl)c1OC` [raclopride], for which the mean average avoidance is 90 (saline pre-treatment, 30 min later raclopride 0.05 mg/kg s.c.) and 70 (saline pre-treatment, 30 min later raclopride 0.10 mg/kg s.c.).
With `CCOc1ccccc1OC(c1ccccc1)C1CNCCO1` (stereo not drawn) [reboxetine], the mean average avoidance (reboxetine 6 mg/kg i.p. pre-treatment, 30 min later saline) worked out at 100.
